Tested on: SARS-CoV-2 pseudovirus (lentiviral vector, spike D614G)
Type: cell-based
Details: read-out: IC50 pseudovirus entry (luciferase output)

SMILES | IC50 [nM]
C#CCC(Cc1cnc2nc(N)nc(N)c2n1)c1ccc(C(=O)N[C@@H](CCC(=O)O)C(=O)O)cc1 (some centres unmarked) [Pralatrexate] | 12.1
COc1cc(NCc2ccc3nc(N)nc(N)c3c2C)cc(OC)c1OC [Trimetrexate] | 225

Source: PMC10221469 (Viruses, 2023)
